Assays:
Experiment in all cases: IA-DTB cysteine engagement
Format in all cases: binding
Conditions in all cases: 22Rv1 cells, 20 μM probe, 1 h, relative to DMSO
RTN4_C1101 = molecular target: T1, RTN4_C1101 (Homo sapiens, UniProt Q9NQC3)
T1 construct: endogenous in cells; host or cells: 22Rv1
T1 sequence (Q9NQC3 1-1192): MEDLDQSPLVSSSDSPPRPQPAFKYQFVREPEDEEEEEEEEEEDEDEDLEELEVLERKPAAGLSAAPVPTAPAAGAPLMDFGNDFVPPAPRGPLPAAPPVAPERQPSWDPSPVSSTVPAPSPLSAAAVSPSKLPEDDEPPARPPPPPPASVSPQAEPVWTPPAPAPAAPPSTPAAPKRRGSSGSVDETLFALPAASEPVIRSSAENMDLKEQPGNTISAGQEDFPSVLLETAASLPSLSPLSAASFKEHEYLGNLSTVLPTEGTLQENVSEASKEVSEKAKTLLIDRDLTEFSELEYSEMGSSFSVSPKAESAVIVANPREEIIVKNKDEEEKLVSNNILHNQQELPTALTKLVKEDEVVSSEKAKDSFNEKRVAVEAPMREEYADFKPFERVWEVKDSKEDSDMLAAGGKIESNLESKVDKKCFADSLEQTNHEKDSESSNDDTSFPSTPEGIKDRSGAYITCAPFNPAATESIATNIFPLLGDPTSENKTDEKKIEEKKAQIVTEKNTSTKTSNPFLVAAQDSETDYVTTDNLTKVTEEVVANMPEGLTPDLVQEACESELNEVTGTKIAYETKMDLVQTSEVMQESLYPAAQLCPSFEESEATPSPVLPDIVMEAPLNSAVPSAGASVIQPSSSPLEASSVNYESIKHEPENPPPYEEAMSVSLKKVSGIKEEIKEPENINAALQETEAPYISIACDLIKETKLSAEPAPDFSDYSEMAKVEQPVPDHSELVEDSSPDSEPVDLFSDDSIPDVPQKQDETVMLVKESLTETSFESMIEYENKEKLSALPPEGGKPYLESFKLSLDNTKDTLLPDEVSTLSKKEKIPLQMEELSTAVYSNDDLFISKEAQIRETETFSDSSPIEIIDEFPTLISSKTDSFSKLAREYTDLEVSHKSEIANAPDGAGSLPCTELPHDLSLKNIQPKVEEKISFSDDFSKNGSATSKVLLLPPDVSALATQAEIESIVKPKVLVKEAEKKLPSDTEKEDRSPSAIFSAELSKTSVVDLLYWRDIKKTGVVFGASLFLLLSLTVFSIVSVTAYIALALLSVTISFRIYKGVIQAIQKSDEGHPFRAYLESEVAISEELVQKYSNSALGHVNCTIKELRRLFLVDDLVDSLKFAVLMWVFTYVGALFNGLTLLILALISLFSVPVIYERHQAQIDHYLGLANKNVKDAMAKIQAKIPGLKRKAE
Procedure, shortened: (§1)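 First, cells are exposed to electrophilic probes in situ. Next, lysates are labeled with IA-DTB (1 h, ambient temperature), reduced, alkylated and trypsin-digested. Then, IA-DTB peptides are enriched on streptavidin, TMT-labeled and analyzed, with ratios taken against DMSO channels.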

DCAF1_C1113 = molecular target: T2, DCAF1_C1113 (Homo sapiens, UniProt Q9Y4B6)
T2 construct: endogenous in cells; host or cells: 22Rv1
T2 sequence (Q9Y4B6 whole entry): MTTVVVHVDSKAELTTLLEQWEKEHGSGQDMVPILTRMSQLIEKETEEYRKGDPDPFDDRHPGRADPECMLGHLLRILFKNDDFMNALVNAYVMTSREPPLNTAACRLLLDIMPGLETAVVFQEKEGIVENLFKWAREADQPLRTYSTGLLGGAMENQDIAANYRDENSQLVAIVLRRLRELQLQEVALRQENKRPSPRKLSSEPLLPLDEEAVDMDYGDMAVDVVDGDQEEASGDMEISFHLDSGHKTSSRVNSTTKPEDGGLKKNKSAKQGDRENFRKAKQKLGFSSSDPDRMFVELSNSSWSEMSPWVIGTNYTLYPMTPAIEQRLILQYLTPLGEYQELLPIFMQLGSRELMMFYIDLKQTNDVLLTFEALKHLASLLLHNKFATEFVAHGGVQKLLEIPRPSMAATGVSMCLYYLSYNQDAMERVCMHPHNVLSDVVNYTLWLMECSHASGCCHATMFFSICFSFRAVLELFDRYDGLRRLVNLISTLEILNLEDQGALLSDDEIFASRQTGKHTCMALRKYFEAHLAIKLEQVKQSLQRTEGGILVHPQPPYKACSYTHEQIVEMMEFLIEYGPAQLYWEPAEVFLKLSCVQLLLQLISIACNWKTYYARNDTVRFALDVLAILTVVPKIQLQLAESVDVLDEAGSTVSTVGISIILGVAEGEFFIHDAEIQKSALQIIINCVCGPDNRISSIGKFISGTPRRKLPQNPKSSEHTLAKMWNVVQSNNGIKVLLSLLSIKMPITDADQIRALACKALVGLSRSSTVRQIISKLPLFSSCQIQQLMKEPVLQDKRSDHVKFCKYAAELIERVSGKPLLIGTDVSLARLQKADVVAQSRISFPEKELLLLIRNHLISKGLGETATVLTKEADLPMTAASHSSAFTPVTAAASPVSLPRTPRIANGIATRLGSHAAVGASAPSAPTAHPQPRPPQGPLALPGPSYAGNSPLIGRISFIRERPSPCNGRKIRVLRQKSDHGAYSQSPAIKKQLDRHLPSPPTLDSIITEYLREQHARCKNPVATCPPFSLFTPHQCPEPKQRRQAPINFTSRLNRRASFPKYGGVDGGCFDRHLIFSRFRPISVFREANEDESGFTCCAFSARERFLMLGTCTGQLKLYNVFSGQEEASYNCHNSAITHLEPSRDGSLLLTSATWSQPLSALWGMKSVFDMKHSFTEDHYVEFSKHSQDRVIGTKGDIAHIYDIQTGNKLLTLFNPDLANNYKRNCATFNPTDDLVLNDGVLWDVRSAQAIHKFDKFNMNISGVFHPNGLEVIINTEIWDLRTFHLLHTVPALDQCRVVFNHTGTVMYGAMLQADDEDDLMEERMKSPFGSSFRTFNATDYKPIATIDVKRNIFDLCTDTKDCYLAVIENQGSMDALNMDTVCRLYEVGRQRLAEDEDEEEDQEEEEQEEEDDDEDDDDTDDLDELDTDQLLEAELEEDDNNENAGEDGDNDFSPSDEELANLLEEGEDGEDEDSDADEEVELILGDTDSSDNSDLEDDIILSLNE
Procedure, shortened: as §1

BLOC1S2_C41 = molecular target: T3, BLOC1S2_C41 (Homo sapiens, UniProt Q6QNY1)
T3 construct: endogenous in cells; host or cells: 22Rv1
T3 sequence (Q6QNY1 1-142): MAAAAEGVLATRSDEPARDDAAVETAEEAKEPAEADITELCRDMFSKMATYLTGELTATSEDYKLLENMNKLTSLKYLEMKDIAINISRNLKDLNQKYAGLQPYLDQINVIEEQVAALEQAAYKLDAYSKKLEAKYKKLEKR
Procedure, shortened: as §1

| SMILES | % engagement RTN4_C1101 (RTN4_C1101) [%] | % engagement DCAF1_C1113 (DCAF1_C1113) [%] | % engagement BLOC1S2_C41 (BLOC1S2_C41) [%] |
| --- | --- | --- | --- |
| C=CC(=O)N1C[C@@H](c2ccc(Br)cc2)[C@H]1C(=O)Nc1cccc2cccnc12 [MY-1A, (2S,3R)-1-acryloyl-3-(4-bromophenyl)-N-(quinolin-8-yl)azetidine-2-carboxamide] | 85 | −18 | 6 |
| C=CC(=O)N1C[C@H](c2ccc(Br)cc2)[C@@H]1C(=O)Nc1cccc2cccnc12 [MY-1B, (2R,3S)-1-acryloyl-3-(4-bromophenyl)-N-(quinolin-8-yl)azetidine-2-carboxamide] | 87.5 | 68.5 | 70 |
| C=CC(=O)N1C[C@H](c2ccc(Br)cc2)[C@H]1C(=O)Nc1cccc2cccnc12 [MY-3A, (2S,3S)-1-acryloyl-3-(4-bromophenyl)-N-(quinolin-8-yl)azetidine-2-carboxamide] | 91.5 | −1.5 | 3.5 |
| C=CC(=O)N1C[C@H](c2ccc(Br)cc2)[C@H]1C(=O)Nc1cccc2cccnc12 [MY-3B, (2S,3S)-1-acryloyl-3-(4-bromophenyl)-N-(quinolin-8-yl)azetidine-2-carboxamide] | 85 | 26.5 | 66.5 |
